Where two headings read alike, the source gives them in different places.
Experiments:
[1] = target: T1, SHP-2 (full length) (Homo sapiens, UniProt Q06124); assay: Inhibition constant determination, selectivity panel: SHP-2 (pNPP hydrolysis); type: biochemical; details: competitive Ki; pNPP substrate; read-out: Phosphatase Inhibition Constants (Kic) SHP-2
T1 sequence (Q06124 1-593): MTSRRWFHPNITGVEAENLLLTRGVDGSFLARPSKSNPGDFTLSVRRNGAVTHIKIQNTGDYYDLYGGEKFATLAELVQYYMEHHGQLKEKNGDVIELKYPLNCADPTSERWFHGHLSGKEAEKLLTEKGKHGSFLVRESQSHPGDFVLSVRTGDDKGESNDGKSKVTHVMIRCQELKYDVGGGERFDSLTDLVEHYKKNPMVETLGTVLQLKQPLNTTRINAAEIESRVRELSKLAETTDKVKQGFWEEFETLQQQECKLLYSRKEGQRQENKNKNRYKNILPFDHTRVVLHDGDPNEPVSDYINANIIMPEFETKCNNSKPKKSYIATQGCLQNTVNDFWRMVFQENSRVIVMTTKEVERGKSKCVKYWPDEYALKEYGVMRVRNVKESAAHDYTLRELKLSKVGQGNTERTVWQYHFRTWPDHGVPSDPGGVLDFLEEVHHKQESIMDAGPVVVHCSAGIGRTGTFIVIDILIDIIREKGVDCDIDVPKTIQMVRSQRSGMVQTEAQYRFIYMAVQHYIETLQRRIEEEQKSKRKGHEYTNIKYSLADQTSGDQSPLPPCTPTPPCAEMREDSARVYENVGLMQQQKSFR
Description: Cells were lysed with a French press following by centrifugation to remove debris. Proteins were precipitated with 50% saturated ammonium sulfate, recovered by centrifugation, and chromatographed on Sephadex G-25 (Amersham Pharmacia Biotech) in 50 mM Tris-HCl pH 8, 10 mM NaCl, 1 mM DTT, 1 mM EDTA. The void volume was pooled and chromatographed on Q-Sepharose-FF in the same buffer, and SHP-2 was eluted with a 0-150 mM gradient of NaCl in the same buffer. Fractions were assayed, pooled, and stored as described for PTP1B.
(§1) The Kic and Kiu values are calculated as described for PTP1B. The assays were performed as described for PTP-1B except for the following changes. All the phosphatases except PP2B use the same 2× assay buffer as PTP1B. PP2B uses a 2× assay buffer which contains 100 mM TRIS-HCl pH 8.6, 40 mM MgCl2, 0.2 mM CaCl2, 6 mM DTT, 0.2 mg/mL BSA. The concentrations of pNPP present in 40 ul were the same for TCPTP, CD45, LAR and PTP1B. For PP2B they were 24 mM, 60 mM, 150 mM, and 375 mM; for cdc25C they were 16 mM, 40 mM, 100 mM, and 250 mM; for SHP-2 they were 6.4 mM, 16 mM, 40 mM, and 100 mM.

[2] = target: T2, LAR (Homo sapiens, UniProt P10586); assay: Inhibition constant determination, selectivity panel: LAR (pNPP hydrolysis); type: biochemical; details: competitive Ki; pNPP substrate; read-out: Phosphatase Inhibition Constants (Kic) LAR
T2 construct: purchased New England Biolabs P0750L
T2 sequence (P10586 1301-1639 limits assumed): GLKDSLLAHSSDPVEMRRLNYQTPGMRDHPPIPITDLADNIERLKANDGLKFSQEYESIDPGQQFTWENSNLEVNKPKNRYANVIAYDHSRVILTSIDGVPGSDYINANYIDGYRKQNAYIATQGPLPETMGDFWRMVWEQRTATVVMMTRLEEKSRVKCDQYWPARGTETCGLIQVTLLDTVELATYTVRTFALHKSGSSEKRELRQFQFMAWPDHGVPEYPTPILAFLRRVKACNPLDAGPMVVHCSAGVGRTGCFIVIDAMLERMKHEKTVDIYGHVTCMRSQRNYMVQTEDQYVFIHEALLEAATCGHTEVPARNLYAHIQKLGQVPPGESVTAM

[3] = target: T3, CD45 (Homo sapiens, UniProt P08575); assay: Inhibition constant determination, selectivity panel: CD45 (pNPP hydrolysis); type: biochemical; details: competitive Ki; pNPP substrate; read-out: Phosphatase Inhibition Constants (Kic) CD45
T3 construct: purchased Biomol Research Laboratories, Inc. SE-135
T3 sequence (P08575 609-1306 limits assumed): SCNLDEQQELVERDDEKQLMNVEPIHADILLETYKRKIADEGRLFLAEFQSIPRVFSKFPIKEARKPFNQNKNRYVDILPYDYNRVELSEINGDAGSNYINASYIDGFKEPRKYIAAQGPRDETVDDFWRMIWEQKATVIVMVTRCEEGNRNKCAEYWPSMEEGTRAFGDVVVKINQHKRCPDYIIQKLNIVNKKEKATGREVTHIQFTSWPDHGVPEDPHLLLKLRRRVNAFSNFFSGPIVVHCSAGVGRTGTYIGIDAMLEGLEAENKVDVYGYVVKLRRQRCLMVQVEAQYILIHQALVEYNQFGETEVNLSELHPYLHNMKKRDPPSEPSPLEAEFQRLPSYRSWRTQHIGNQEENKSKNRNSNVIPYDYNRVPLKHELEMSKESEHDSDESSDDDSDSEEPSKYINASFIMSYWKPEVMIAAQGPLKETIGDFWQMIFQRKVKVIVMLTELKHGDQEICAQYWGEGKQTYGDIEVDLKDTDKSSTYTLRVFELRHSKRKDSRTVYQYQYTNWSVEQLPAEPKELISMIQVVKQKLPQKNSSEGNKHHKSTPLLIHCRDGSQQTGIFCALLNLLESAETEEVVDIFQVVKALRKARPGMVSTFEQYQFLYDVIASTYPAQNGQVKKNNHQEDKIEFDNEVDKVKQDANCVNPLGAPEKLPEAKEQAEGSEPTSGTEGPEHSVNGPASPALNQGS
Description: CD45 was obtained commercially (catalog#SE-135 Biomol Research Laboratories, Inc. 5120 Butler Pike, Plymouth Meeting, Pa.).
as §1

[4] = target: T4, Bovine PP2B (Bos taurus, UniProt P48452); assay: Inhibition constant determination, selectivity panel: PP2B (pNPP hydrolysis); type: biochemical; details: competitive Ki; pNPP substrate; read-out: Phosphatase Inhibition Constants (Kic) PP2B
T4 construct: purchased Sigma C1907
T4 sequence (P63099 2-170 partner limits assumed, other chains not shown): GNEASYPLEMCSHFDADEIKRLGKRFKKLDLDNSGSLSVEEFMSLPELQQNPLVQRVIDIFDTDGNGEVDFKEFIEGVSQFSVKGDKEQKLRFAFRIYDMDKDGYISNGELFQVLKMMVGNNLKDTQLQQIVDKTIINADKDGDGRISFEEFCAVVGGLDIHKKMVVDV
Description: Bovine PP2B was obtained commercially (C1907 Sigma, St. Louis, Mo.).
as §1

[5] = target: T5, CDC25c (fusion with glutathione-S-transferase) (Homo sapiens, UniProt P30307); assay: Inhibition constant determination, selectivity panel: cdc25c (pNPP hydrolysis); type: biochemical; details: competitive Ki; pNPP substrate; read-out: Phosphatase Inhibition Constants (Kic) Cdc25c
T5 sequence (P30307 1-473): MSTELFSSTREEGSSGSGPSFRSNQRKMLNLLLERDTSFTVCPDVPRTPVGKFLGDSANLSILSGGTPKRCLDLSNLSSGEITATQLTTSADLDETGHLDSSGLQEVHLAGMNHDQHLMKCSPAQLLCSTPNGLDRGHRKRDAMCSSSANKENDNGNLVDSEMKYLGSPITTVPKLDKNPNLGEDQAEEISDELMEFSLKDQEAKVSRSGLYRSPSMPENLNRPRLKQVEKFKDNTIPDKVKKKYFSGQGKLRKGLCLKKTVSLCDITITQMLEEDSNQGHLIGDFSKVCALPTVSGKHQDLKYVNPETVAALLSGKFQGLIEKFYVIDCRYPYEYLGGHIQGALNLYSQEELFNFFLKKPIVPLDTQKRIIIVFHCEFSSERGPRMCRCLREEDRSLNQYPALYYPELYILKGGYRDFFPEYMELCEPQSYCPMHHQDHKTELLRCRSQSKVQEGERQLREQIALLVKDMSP
Description: CDC25c was expressed as a fusion with glutathione-S— transferase (aka GST) in E. coli. Cells were lysed and debris removed as described for SHP-2, except lysis was in PBS (GibcoBRL Life Technologies, Grand Island, N.Y., Stock # 70011-044, diluted 10-fold). The soluble proteins were chromatographed on Glutathione-Sepharose FF (Amersham Pharmacia Biotech) and eluted with 10 mM reduced glutathione in 25 mM TRIS-HCl, pH 7.5, 150 mM NaCl. Fractions were assayed, pooled and stored as decribed for PTP1B.
as §1

[6] = target: T6, TCPTP (Homo sapiens, UniProt P17706); assay: biochemical
T6 sequence (P17706 1-283): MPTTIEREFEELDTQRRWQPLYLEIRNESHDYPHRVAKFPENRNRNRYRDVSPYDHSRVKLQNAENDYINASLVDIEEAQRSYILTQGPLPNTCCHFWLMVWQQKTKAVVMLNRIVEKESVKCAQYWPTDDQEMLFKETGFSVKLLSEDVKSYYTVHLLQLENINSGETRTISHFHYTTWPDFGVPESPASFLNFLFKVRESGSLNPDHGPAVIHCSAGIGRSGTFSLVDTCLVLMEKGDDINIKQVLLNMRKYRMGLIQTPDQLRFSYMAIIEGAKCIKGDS

[7] = target: T7, Human protein tyrosine phosphatase 1B (PTP1B, amino acid residues 1-321) (Homo sapiens, UniProt P18031); details: read-out: Phosphatase Inhibition Constants (Kic) PTP1B; competitive Ki, +/- S.D.; pNPP substrate
T7 sequence (P18031 1-321): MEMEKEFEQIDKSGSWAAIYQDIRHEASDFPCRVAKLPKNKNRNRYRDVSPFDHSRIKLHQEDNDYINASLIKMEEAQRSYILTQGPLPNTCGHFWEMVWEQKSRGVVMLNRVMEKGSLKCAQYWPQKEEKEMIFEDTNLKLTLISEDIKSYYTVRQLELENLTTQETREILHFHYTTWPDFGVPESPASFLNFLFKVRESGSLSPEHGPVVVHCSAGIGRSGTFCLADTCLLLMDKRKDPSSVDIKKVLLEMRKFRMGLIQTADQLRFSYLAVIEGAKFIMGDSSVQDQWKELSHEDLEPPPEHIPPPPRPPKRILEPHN

[8] = target: T6, TCPTP; details: read-out: Phosphatase Inhibition Constants (Kic) TC-PTP; competitive Ki, +/- S.D.; pNPP substrate

| Ki [1] | Ki [2] | Ki [3] | Ki [4] | Ki [5] | Ki [6] | Ki [7] | Ki [8] | SMILES |
| --- | --- | --- | --- | --- | --- | --- | --- | --- |
| > 300 µM | > 300 µM | > 300 µM | > 300 µM | > 300 µM | 202 µM | – | – | COC(=O)c1c(O)cccc1OC/C=C/c1cccc(-c2cc(C(=O)O)no2)c1 [Example 1, 5-(3-((1E)-3-(3-hydroxy-2-(methoxycarbonyl)phenoxy)prop-1-enyl)phenyl)isoxazole-3-carboxylic Acid] |
| > 300 µM | – | > 300 µM | > 300 µM | > 300 µM | – | 6.9 µM | 164 µM | COC(=O)c1c(O)cccc1OC/C=C/c1ccc(F)c(-c2cc(C(=O)O)no2)c1 [Example 8, 5-(2-fluoro-5-((1E)-3-(3-hydroxy-2-(methoxycarbonyl)phenoxy)prop-1-enyl)phenyl)isoxazole-3-carboxylic Acid] |
